How the values were obtained:
KDR = KDR (Homo sapiens (Human), UniProt P35968); assay: KDR kinase inhibition, luciferase-coupled chemiluminescent assay (LCCA); conditions: read-out: KDR IC50
Protocol: (§1) Kinase activity and compound inhibition are investigated using one or more of the three assay formats described below. The ATP concentrations are selected near its Michaelis-Menten constant (KM) for each individual kinase. Dose-response experiments are performed at ten different inhibitor concentrations in a 384-well plate format. […] Typically H is close to unity.
(§2) In the LCCA assays, kinase activity is measured by the ATP consumption that is accurately measured by luciferase-coupled chemiluminescence. Greiner 384-well white clear bottom medium binding plates are used for LCCA. Briefly the kinase reaction is initiated by mixing compounds, ATP and kinases in a 20 μL volume. At the end of the kinase reaction, a 20 μL luciferase-luciferin mix is added and the chemiluminescent signal is read on a Wallac Victor^2 reader.

EGFR = EGFR (Homo sapiens (Human), UniProt P00533); assay: EGFR kinase inhibition, luciferase-coupled chemiluminescent assay (LCCA); conditions: read-out: EGFR IC50
Protocol: as §1, §2

EphB4 = EphB4 (Homo sapiens (Human), UniProt P54760); assay: EphB4 kinase inhibition, 33P phosphoryl transfer assay (radiometric); assay type: biochemical
Chain of EphB4 (P54760 605-890): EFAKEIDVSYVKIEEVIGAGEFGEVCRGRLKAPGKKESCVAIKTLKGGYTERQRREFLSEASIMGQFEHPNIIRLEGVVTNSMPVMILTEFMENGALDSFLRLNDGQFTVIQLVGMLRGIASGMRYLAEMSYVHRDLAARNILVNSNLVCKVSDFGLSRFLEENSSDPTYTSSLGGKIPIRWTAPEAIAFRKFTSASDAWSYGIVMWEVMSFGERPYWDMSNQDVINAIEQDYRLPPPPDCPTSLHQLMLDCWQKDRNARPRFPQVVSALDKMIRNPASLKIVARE

EphA2 = EphA2 (Homo sapiens (Human), UniProt P29317); assay: EphA2 kinase inhibition, luciferase-coupled chemiluminescent assay (LCCA); conditions: read-out: EphA2 IC50
Chain of EphA2 (P29317 598-890): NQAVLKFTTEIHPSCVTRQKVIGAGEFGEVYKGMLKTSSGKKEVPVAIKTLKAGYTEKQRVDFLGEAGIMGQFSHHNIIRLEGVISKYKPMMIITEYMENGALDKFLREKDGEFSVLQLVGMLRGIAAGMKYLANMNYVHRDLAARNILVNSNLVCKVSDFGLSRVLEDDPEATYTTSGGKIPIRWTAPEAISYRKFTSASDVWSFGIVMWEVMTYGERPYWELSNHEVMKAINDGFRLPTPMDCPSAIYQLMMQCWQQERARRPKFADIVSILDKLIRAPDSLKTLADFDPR

Chain of KDR (P35968 807-1356): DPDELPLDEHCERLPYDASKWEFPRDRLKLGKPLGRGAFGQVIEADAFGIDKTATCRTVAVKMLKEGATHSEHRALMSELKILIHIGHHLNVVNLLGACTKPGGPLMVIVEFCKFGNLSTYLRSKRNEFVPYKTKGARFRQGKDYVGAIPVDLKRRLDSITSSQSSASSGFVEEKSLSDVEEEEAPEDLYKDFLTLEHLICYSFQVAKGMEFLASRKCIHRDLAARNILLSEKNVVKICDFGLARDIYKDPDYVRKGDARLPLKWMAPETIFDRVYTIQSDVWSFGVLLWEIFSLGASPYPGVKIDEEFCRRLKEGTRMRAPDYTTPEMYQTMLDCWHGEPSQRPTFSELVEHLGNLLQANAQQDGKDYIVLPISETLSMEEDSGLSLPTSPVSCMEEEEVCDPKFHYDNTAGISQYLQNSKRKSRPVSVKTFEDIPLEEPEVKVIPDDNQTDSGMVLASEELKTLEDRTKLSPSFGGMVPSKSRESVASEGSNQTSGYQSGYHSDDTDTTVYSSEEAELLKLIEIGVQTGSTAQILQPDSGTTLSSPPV
Chain of EGFR (P00533 672-1210): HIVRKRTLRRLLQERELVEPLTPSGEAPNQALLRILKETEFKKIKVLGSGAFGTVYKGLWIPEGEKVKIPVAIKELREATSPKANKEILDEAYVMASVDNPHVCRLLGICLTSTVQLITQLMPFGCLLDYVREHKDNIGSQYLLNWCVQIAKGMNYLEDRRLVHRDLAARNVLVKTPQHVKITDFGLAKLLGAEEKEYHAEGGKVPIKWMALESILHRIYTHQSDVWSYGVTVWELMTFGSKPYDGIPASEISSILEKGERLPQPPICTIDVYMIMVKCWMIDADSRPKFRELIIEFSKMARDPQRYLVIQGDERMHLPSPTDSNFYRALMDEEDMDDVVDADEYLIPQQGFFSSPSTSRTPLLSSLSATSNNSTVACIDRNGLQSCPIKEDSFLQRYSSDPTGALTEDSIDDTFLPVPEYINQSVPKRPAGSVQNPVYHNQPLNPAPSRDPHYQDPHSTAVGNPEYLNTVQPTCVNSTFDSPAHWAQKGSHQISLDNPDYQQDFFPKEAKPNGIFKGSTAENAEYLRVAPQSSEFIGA

SMILES	IC50 (KDR) [nM]	IC50 (EGFR) [nM]	IC50 (EphB4) [nM]	IC50 (EphA2) [nM]
COc1cc2c(Nc3ccc(Br)c(Cl)c3)ncnc2cc1O[C@H]1CO[C@H]2[C@@H]1OC[C@@H]2OC [Example 73, 1,4:3,6-dianhydro-2-O-[4-[(4-bromo-3-chlorophenyl)amino]-6-(methyloxy)quinazolin-7-yl]-5-O-methyl-L-iditol]	< 50	–	–	–
COc1cc2c(Nc3ccc(Br)c(Cl)c3)ncnc2cc1O[C@H]1CO[C@H]2[C@@H]1OC[C@H]2OC [Example 78, 1,4:3,6-dianhydro-2-O-[4-[(4-bromo-3-chlorophenyl)amino]-6-(methyloxy)quinazolin-7-yl]-5-O-methyl-D-glucitol]	< 50	–	–	–
COc1cc2c(Nc3c(F)cccc3F)ncnc2cc1O[C@@H]1CO[C@@H]2[C@H]1OC[C@H]2F [Example 87, 1,4:3,6-dianhydro-2-deoxy-5-O-[4-[(2,6-difluorophenyl)amino]-6-(methyloxy)quinazolin-7-yl]-2-fluoro-D-iditol]	< 50	< 50	–	–
COc1cc2c(Nc3ccc(F)cc3F)ncnc2cc1O[C@@H]1CO[C@@H]2[C@H]1OC[C@H]2F [Example 90, 1,4:3,6-dianhydro-2-deoxy-5-O-[4-[(2,4-difluorophenyl)amino]-6-(methyloxy)quinazolin-7-yl]-2-fluoro-D-iditol]	< 50	< 50	–	–
COc1cc2c(Nc3ccc(Cl)cc3F)ncnc2cc1O[C@@H]1CO[C@@H]2[C@H]1OC[C@H]2F [Example 109, 1,4:3,6-dianhydro-5-O-[4-[(4-chloro-2-fluorophenyl)amino]-6-(methyloxy)quinazolin-7-yl]-2-deoxy-2-fluoro-D-iditol]	< 50	< 50	–	–
COc1cc2c(Nc3c(F)cc(F)cc3Br)ncnc2cc1O[C@@H]1CO[C@@H]2[C@H]1OC[C@H]2F [Example 120, 1,4:3,6-dianhydro-5-O-[4-[(2-bromo-4,6-difluorophenyl)amino]-6-(methyloxy)quinazolin-7-yl]-2-deoxy-2-fluoro-D-iditol]	< 50	< 50	–	–
COc1cc2c(Nc3cc(C(F)(F)F)ccc3Cl)ncnc2cc1O[C@@H]1CO[C@@H]2[C@H]1OC[C@H]2F [Example 122, 1,4:3,6-dianhydro-5-O-[4-{[2-chloro-5-(trifluoromethyl)phenyl]amino}-6-(methyloxy)quinazolin-7-yl]-2-deoxy-2-fluoro-D-iditol]	< 50	< 50	–	–
COc1ccc(OC)c(Nc2ncnc3cc(O[C@@H]4CO[C@@H]5[C@H]4OC[C@H]5F)c(OC)cc23)c1 [Example 134, 1,4:3,6-dianhydro-5-O-[4-{[2,5-bis(methyloxy)phenyl]amino}-6-(methyloxy)quinazolin-7-yl]-2-deoxy-2-fluoro-D-iditol]	< 50	< 50	–	–
COc1cc2c(Nc3ccc(Cl)c(Cl)c3)ncnc2cc1OCc1noc(C(C)(C)C)n1 [Example 157, N-(3,4-dichlorophenyl)-7-({[5-(1,1-dimethylethyl)-1,2,4-oxadiazol-3-yl]methyl}oxy)-6-(methyloxy)quinazolin-4-amine]	< 50	< 50	–	–
COc1cc2c(Nc3ccc(Cl)c(Cl)c3)ncnc2cc1OCc1csc(C2CCCCN2C)n1 (stereo not shown) [Example 250, N-(3,4-dichlorophenyl)-6-(methyloxy)-7-({[2-(1-methylpiperidin-2-yl)-1,3-thiazol-4-yl]methyl}oxy)quinazolin-4-amine]	–	< 50	50 to 1000	50 to 1000
COc1cc2c(Nc3ccc(Cl)c(Cl)c3)ncnc2cc1OCc1csc(C2CCCNC2)n1 (stereo not shown) [Example 251, N-(3,4-dichlorophenyl)-6-(methyloxy)-7-{[(2-piperidin-3-yl-1,3-thiazol-4-yl)methyl]oxy}quinazolin-4-amine]	–	< 50	50 to 1000	1000 to 20000
CCN1CCCCC1c1nc(COc2cc3ncnc(Nc4ccc(Cl)c(Cl)c4)c3cc2OC)cs1 (stereo not shown) [Example 253, N-(3,4-dichlorophenyl)-7-({[2-(1-ethylpiperidin-2-yl)-1,3-thiazol-4-yl]methyl}oxy)-6-(methyloxy)quinazolin-4-amine]	–	< 50	1000 to 20000	1000 to 20000
CCN1CCCC(c2nc(COc3cc4ncnc(Nc5ccc(Cl)c(Cl)c5)c4cc3OC)cs2)C1 (stereo not shown) [Example 254, N-(3,4-dichlorophenyl)-7-({[2-(1-ethylpiperidin-3-yl)-1,3-thiazol-4-yl]methyl}oxy)-6-(methyloxy)quinazolin-4-amine]	–	< 50	50 to 1000	1000 to 20000
COCCN1CCCOC(COc2cc3ncnc(Nc4ccc(Cl)c(Cl)c4)c3cc2OC)C1 (stereo not shown) [Example 260, N-(3,4-dichlorophenyl)-6-(methyloxy)-7-[({4-[2-(methyloxy)ethyl]-1,4-oxazepan-2-yl}methyl)oxy]quinazolin-4-amine]	–	< 50	50 to 1000	1000 to 20000
COc1cc2c(Nc3ccc(Cl)c(Cl)c3)ncnc2cc1OCC1CN(C(C)C)CCCO1 (stereo not shown) [Example 261, N-(3,4-dichlorophenyl)-7-({[4-(1-methylethyl)-1,4-oxazepan-2-yl]methyl}oxy)-6-(methyloxy)quinazolin-4-amine]	–	< 50	50 to 1000	1000 to 20000
COc1cc2c(Nc3ccc(Cl)c(Cl)c3)ncnc2cc1OCc1csc(N2CCNCC2)n1 [Example 262, N-(3,4-dichlorophenyl)-6-(methyloxy)-7-{[(2-piperazin-1-yl-1,3-thiazol-4-yl)methyl]oxy}quinazolin-4-amine]	–	< 50	50 to 1000	1000 to 20000
COc1cc2c(Nc3ccc(Cl)c(Cl)c3)ncnc2cc1OCc1noc(C2CCCN2)n1 (stereo not shown) [Example 263, N-(3,4-dichlorophenyl)-6-(methyloxy)-7-{[(5-pyrrolidin-2-yl-1,2,4-oxadiazol-3-yl)methyl]oxy}quinazolin-4-amine]	–	< 50	50 to 1000	1000 to 20000
CCN1CCCC1c1nc(COc2cc3ncnc(Nc4ccc(Cl)c(Cl)c4)c3cc2OC)no1 (stereo not shown) [Example 264, N-(3,4-dichlorophenyl)-7-({[5-(1-ethylpyrrolidin-2-yl)-1,2,4-oxadiazol-3-yl]methyl}oxy)-6-(methyloxy)quinazolin-4-amine]	–	< 50	50 to 1000	1000 to 20000
COc1cc2c(Nc3ccc(Cl)c(Cl)c3)ncnc2cc1OCc1nc([C@@H]2CCCN2C)no1 [Example 265, N-(3,4-dichlorophenyl)-6-(methyloxy)-7-[({3-[(2S)-1-methylpyrrolidin-2-yl]-1,2,4-oxadiazol-5-yl}methyl)oxy]quinazolin-4-amine]	–	< 50	50 to 1000	1000 to 20000
COc1cc2c(Nc3ccc(Cl)c(Cl)c3)ncnc2cc1OCc1csc([C@@H]2CCCN2C)n1 [Example 266, N-(3,4-dichlorophenyl)-6-(methyloxy)-7-[({2-[(2S)-1-methylpyrrolidin-2-yl]-1,3-thiazol-4-yl}methyl)oxy]quinazolin-4-amine]	–	< 50	50 to 1000	1000 to 20000
CCN1CCN(c2nc(COc3cc4ncnc(Nc5ccc(Cl)c(Cl)c5)c4cc3OC)cs2)CC1 [Example 267, N-(3,4-dichlorophenyl)-7-({[2-(4-ethylpiperazin-1-yl)-1,3-thiazol-4-yl]methyl}oxy)-6-(methyloxy)quinazolin-4-amine]	–	< 50	1000 to 20000	1000 to 20000
COc1cc2c(Nc3ccc(Cl)c(Cl)c3)ncnc2cc1OCC1CN(C)CCN1C (stereo not shown) [Example 268, N-(3,4-dichlorophenyl)-7-{[(1,4-dimethylpiperazin-2-yl)methyl]oxy}-6-(methyloxy)quinazolin-4-amine]	–	< 50	50 to 1000	1000 to 20000
COc1cc2c(Nc3ccc(Cl)c(Cl)c3)ncnc2cc1OCC1CN(C(C)C)CCO1 (stereo not shown) [Example 270, N-(3,4-dichlorophenyl)-7-({[4-(1-methylethyl)morpholin-2-yl]methyl}oxy)-6-(methyloxy)quinazolin-4-amine]	–	< 50	50 to 1000	1000 to 20000
COc1cc2c(Nc3ccc(Cl)c(Cl)c3)ncnc2cc1OCC1CN(CCCc2ccccc2)CCO1 (stereo not shown) [Example 271, N-(3,4-dichlorophenyl)-6-(methyloxy)-7-({[4-(3-phenylpropyl)morpholin-2-yl]methyl}oxy)quinazolin-4-amine]	–	< 50	50 to 1000	1000 to 20000
COCCN1CCOC(COc2cc3ncnc(Nc4ccc(Cl)c(Cl)c4)c3cc2OC)C1 (stereo not shown) [Example 272, N-(3,4-dichlorophenyl)-6-(methyloxy)-7-[({4-[2-(methyloxy)ethyl]morpholin-2-yl}methyl)oxy]quinazolin-4-amine]	–	< 50	50 to 1000	1000 to 20000
CCOC(=O)C(C)N1CCOC(COc2cc3ncnc(Nc4ccc(Cl)c(Cl)c4)c3cc2OC)C1 (stereo not shown) [Example 273, ethyl 2-[2-({[4-[(3,4-dichlorophenyl)amino]-6-(methyloxy)quinazolin-7-yl]oxy}methyl)morpholin-4-yl]propanoate]	–	< 50	1000 to 20000	1000 to 20000
COc1cc2c(Nc3ccc(Cl)c(Cl)c3)ncnc2cc1OCC1CN(CCOCCO)CCO1 (stereo not shown) [Example 275, 2-({2-[2-({[4-[(3,4-dichlorophenyl)amino]-6-(methyloxy)quinazolin-7-yl]oxy}methyl)morpholin-4-yl]ethyl}oxy)ethanol]	–	< 50	1000 to 20000	1000 to 20000
COc1cc2c(Nc3ccc(Cl)c(Cl)c3)ncnc2cc1OCC1CN(CCCCCC#N)CCO1 (stereo not shown) [Example 277, 6-[2-({[4-[(3,4-dichlorophenyl)amino]-6-(methyloxy)quinazolin-7-yl]oxy}methyl)morpholin-4-yl]hexanenitrile]	–	< 50	50 to 1000	1000 to 20000

From patent US9796704B2, “Substituted quinazolines as receptor-type kinase inhibitors” (Symphony Evolution, Inc., priority 2002, dated 2017)
